# Measured values as given in ChEMBL document CHEMBL1127015, “Centrally acting serotonergic and dopaminergic agents. 1. Synthesis and structure-activity relationships of 2,3,3a,4,5,9b-hexahydro-1H-benz[e]indole derivatives” (J Med Chem, 1993).
# Values joined by “and” are separate entries in the source; they are usually repeats but may differ in a detail not shown here. Equal values may be shown once.
# Legend:
# [1] = target: T1, D(2) dopamine receptor (Homo sapiens, UniProt P14416); assay: Binding affinity against [3H]U-86,170-labeled dopamine receptor D2 in cloned CHO cells; type: cell-based
# [2] = target: T2, D(2) dopamine receptor (Rattus norvegicus, UniProt P61169); assay: Inhibitory concentration against [3H]raclopride-labeled dopamine receptor D2 in rat striatum; type: tissue-based
# [3] = test system: Mus musculus; assay: Effective dose on hypothermia in mouse when administered subcutaneously; type: functional; conditions: sc
# [4] = test system: Mus musculus; assay: Effective dose on hypothermia in mouse when administered through peroral route; type: functional; conditions: po
# [5] = test system: Mus musculus; assay: Maximum decrease in temperature when compound is administered through peroral route; type: functional
# [6] = test system: Mus musculus; assay: Maximum decrease in temperature when compound is administered subcutaneously; type: functional
# [7] = test system: Rattus norvegicus; assay: Inhibition of firing rates of dopaminergic neurons in the substantia nigra pars compacta by intravenous injection in rats.; type: functional
# [8] = target: T1, D(2) dopamine receptor; assay: Intrinsic activity from GTP shift using membranes from CHO cells transfected with mammalian dopamine receptor D2.; type: cell membranes
# [9] = target: T2, D(2) dopamine receptor; assay: Binding affinity against [3H]raclopride-labeled dopamine receptor D2 in rat striatum.; type: tissue-based
# [10] = test system: Felis catus; assay: Maximum decrease of arterial blood pressure at sympathetic nerve activity (SND) in anesthetized cat has been observed following 1 mg/kg dose; type: functional; design: scale not given: the % may be the effect or the level left
# [11] = test system: Mus musculus; assay: Antagonism of apomorphine effects for 10-20 minutes in reserpinized mice following 0.4 umol/kg i.p.; type: functional
# [12] = test system: Mus musculus; assay: Antagonism of apomorphine for 10-20 minutes in reserpinized mice when a dose of 3.6 micro mol/kg is administered intraperitoneally; type: functional
# [13] = test system: Mus musculus; assay: Antagonism of apomorphine for 0-10 minutes in reserpinized mice when a dose of 3.6 micro mol/kg is administered intraperitoneally; type: functional
# [14] = test system: Mus musculus; assay: Antagonism of apomorphine for 10-20 minutes in reserpinized mice when a dose of 36 micro mol/kg is administered intraperitoneally; type: functional
# [15] = test system: Mus musculus; assay: Antagonism of apomorphine in reserpinized mice when a dose of 36 micro mol/kg is administered intraperitoneally; type: functional
# [16] = test system: Mus musculus; assay: Antagonism of apomorphine in reserpinized mice when a dose of 3.6 micro mol/kg is administered intraperitoneally; type: functional
# [17] = test system: Mus musculus; assay: Antagonism of apomorphine effects in reserpinized mice following 0.4 umol/kg i.p.; type: functional
# [18] = species on record: Rattus norvegicus; assay: Effect on the synthesis rates of serotonin (5-HTP accumulation) in the rat ventral limbic brain region at 10.7uMkg.; type: functional, Limbic system
# [19] = test system: Mus musculus; assay: Antagonism of apomorphine effects for 0-10 minutes in reserpinized mice following 0.4 umol/kg i.p.; type: functional; design: unit not given beside the values
# [20] = test system: Mus musculus; assay: Antagonism of apomorphine for 0-10 minutes in reserpinized mice when a dose of 36 micro mol/kg is administered intraperitoneally; type: functional
# [21] = species on record: Rattus norvegicus; assay: Effect on the synthesis rates of serotonin (5-HTP accumulation) in the rat ventral limbic brain region at 10.7uMkg. value as percent change from the control; type: functional, Limbic system
# [22] = test system: Mus musculus; assay: Ability to stimulate dopaminergic systems by effect on locomotor activity in reserpinized mice when a dose of 36 micro mol/kg is administered intraperitoneally; type: functional
# [23] = test system: Mus musculus; assay: Ability to stimulate dopaminergic systems by effect on locomotor activity in reserpinized mice when a dose of 3.6 micro mol/kg is administered intraperitoneally; type: functional
# [24] = test system: Mus musculus; assay: Increase in locomotor activity in reserpinized mice following 0.4 umol/kg i.p.; type: functional
# [25] = test system: Felis catus; assay: Maximum decrease of sympathetic nerve activity (SND) in anesthetized cat has been expressed as percent control; type: functional; design: scale not given: the % may be the effect or the level left
# [26] = species on record: Felis catus; assay: Percent of arterial blood pressure at sympathetic nerve activity (SND) dose value was determined; type: functional
# [27] = test system: Felis catus; assay: Effective dose at which the sympathetic nerve activity (SND) has been reduced to 50% of the pretreatment value in anesthetized cat; type: functional
# [28] = test system: Felis catus; assay: Maximum decrease of sympathetic nerve activity (SND) in anesthetized cat; type: functional; design: scale not given: the % may be the effect or the level left
# T2 sequence (P61169 whole entry): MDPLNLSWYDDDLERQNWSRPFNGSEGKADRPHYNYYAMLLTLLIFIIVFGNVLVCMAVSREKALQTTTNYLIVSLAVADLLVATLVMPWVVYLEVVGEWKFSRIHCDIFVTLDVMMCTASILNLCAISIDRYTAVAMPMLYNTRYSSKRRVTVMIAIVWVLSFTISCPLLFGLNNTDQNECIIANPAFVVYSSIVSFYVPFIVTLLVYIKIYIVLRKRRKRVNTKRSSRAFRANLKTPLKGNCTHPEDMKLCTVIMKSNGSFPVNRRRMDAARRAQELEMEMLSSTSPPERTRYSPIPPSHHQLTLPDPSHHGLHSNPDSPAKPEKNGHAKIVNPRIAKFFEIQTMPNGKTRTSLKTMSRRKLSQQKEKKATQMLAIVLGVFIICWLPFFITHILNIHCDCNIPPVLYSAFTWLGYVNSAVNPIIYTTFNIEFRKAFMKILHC
# T1 sequence (P14416 whole entry): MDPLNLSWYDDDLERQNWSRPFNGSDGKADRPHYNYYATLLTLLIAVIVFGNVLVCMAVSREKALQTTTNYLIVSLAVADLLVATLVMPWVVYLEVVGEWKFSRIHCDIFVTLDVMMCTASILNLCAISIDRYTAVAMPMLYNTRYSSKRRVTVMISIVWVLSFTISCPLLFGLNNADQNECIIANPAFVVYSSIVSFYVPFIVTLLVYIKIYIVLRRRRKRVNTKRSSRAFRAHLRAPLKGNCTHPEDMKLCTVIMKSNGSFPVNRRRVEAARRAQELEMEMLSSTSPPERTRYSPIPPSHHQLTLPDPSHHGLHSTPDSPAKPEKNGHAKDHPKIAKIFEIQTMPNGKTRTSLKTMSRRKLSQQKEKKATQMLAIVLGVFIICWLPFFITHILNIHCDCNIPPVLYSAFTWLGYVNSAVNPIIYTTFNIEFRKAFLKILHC
smiles,measurement,setting,value
COc1cccc2c1C1CCN(CCc3ccccc3)[C@@H]1CC2 (some centres undefined),Ki,[1],> 339 nM
CCCN1CC[C@H]2c3c(O)cccc3CC[C@H]21,IC50,[2],> 1000 nM
same,ED50,[3],0.3 µmol/kg
same,ED50,[4],4.9 µmol/kg
same,Max temperature decrease,[5],7.3
same,Max temperature decrease,[6],5.5
C=CCN1CC[C@@H]2c3cccc(OC)c3CC[C@@H]21,ED50,"[7]; Rattus norvegicus, Substantia nigra pars compacta, iv, read-out: ED50",> 3.6 µmol/kg
CCCN1CC[C@@H]2c3c(O)cccc3CC[C@@H]21,Intrinsic activity,[8],0%
same,IC50,[2],> 1000 nM
same,ED50,[3],0.05 µmol/kg
same,ED50,[4],21 µmol/kg
same,Max temperature decrease,[5],5.5
same,Max temperature decrease,[6],8.5
CCCN1CC[C@@H]2c3c(cccc3OC)CC[C@@H]21,Ki,[9],> 1000 nM
C=CCN1CCC2c3cccc(OC)c3CC[C@H]21 (mixture of isomers),Control,[10],98%
same,Locomotor activity,[11],92
same,Intrinsic activity,[8],0%
same,Locomotor activity,[12],59
same,Locomotor activity,[13],112
same,ED50,[3],> 107 µmol/kg
same,Locomotor activity,[14],17
same,Locomotor activity,[15],1
same,Locomotor activity,[16],27
same,Ki,[9],42 nM
same,Locomotor activity,[17],73
same,Control,[18],147%
same,Locomotor activity,[19],91
same,Locomotor activity,[20],33
same,ED50,[7],0.42 µM/kg and 0.88 µM/kg
same,Control,[21],-4%
same,Locomotor activity,[22],9
same,Locomotor activity,[23],9
same,Locomotor activity,[24],15
same,Control,[25],132%
CCCN1[C@@H]2CCc3cccc(OC)c3C2C[C@@H]1C (mixture of isomers),BP,[26],42%
same,Control,[10],73%
same,ED50,[27],0.17 µmol/kg
same,IC50,[2],> 1000 nM
same,ED50,[3],14 µmol/kg
same,ED50,[4],338 µmol/kg
same,Control,[28],82%
same,Max temperature decrease,[5],3
same,Max temperature decrease,[6],6.8
CCCN1CCC2c3c(cccc3OC)CCC21 (racemic),ED50,[3],20 µmol/kg
same,ED50,[4],109 µmol/kg
same,Ki,[9],> 1000 nM
same,Max temperature decrease,[5],6
same,Max temperature decrease,[6],1.5
C=CCN1CC[C@@H]2c3cccc(OC)c3CC[C@H]21 (racemic),Control,[10],61%
same,Locomotor activity,[11],106
same,Intrinsic activity,[8],0%
same,Locomotor activity,[12],116
same,Locomotor activity,[13],76
same,ED50,[3],> 107 µmol/kg
same,Locomotor activity,[14],54
same,Locomotor activity,[15],13
same,Locomotor activity,[16],142
same,Ki,[9],99 nM
same,Locomotor activity,[17],156
same,Control,[18],-51%
same,Locomotor activity,[19],78
same,Locomotor activity,[20],42
same,Control,[21],95%
same,Locomotor activity,[22],49
same,Locomotor activity,[23],81
same,Max temperature decrease,[6],3.4
same,Locomotor activity,[24],4
same,Control,[25],105%
COc1cccc2c1CC[C@@H]1[C@@H]2CCN1CC1CC1 (racemic),Ki,[9],> 10000 nM
